The melting point is the temperature of the solid-liquid transition.

Where “and” joins values, the source holds several entries; their conditions need not be identical. Equal values may be shown once. Where a name gives a salt, the structure may show the parent alone.

The source of these data is patent US20060111396A1, “4-Phenyl substituted tetrahydroisoquinolines and use thereof to block reuptake of norepinephrine, dopamine and serotonin” (AMR Technology, Inc., priority 2004, published 2006).

Test system in the first series: not given
Conditions: not given
For `CN1Cc2cc(C(F)(F)F)ccc2C(c2ccccc2)C1` (stereo not drawn), the melting point is 257 to 275 °C.

In turn, `Cc1ccc2c(c1)C(C)N(C)CC2c1ccccc1` (stereo not drawn) yielded a melting point of 87 to 89 °C. The same measure, in the same setting: with `FCc1ccc2c(c1CF)CN(CF)CC2c1ccccc1` (stereo not drawn) the figure was 108 to 113 °C.

`Cc1c(F)ccc2c1CN(C)CC2c1ccccc1` (stereo not drawn) had a melting point of 185 to 186 °C. Compound `COc1c(C)ccc2c1CN(C)CC2c1ccccc1` (stereo not drawn) returned a melting point of 130 to 131 °C. On the same count and under the same terms, in the case of `Cc1ccc2c(c1O)CN(C)CC2c1ccccc1` (stereo not drawn) it was 260 to 261 °C. Same read-out and setting: with `CN1Cc2cc(OC(F)(F)F)ccc2C(c2ccccc2)C1` (stereo not drawn) the figure was 150 to 151 °C (dec.). As for `CN1Cc2cc(Oc3ccccc3)ccc2C(c2ccccc2)C1` (stereo not drawn), the melting point is 175 to 176 °C (dec.).

`CN1Cc2cc(OCc3ccccc3)ccc2C(c2ccccc2)C1` (stereo not drawn) gave a melting point of 155 to 156 °C. Still for that read-out and setting: in the case of `Cc1ccc2c(c1)CN(C)CC2c1ccc(F)c(C)c1` (stereo not drawn) it was 174 to 175 °C.

As for `CNCc1cccc2c1CN(C)CC2c1ccccc1` (stereo not drawn), the melting point fell in the range of 278 to 282 °C. Turning to `CN1Cc2c(CO)cccc2C(c2ccccc2)C1` (stereo not drawn), the melting point was in the range of 144 to 146 °C.

Consider `CN1Cc2ccccc2C(c2cc(F)cc(F)c2)C1` (stereo not drawn) (as salt: HCl), for which the melting point was 230 to 233 °C and 230 to 235 °C. Turning to `Cc1cc(F)c2c(c1)C(C)N(C)C(F)C2c1ccccc1` (stereo not drawn) (as salt: HCl), the melting point is 194 to 197 °C (dec.).

On to `CNCc1ccc2c(c1F)CN(C)CC2c1ccccc1` (stereo not drawn) (as salt: HCl), for which the melting point lay in the range of 185 to 205 °C. Regarding `CN1Cc2cc(CO)ccc2C(c2ccccc2)C1` (stereo not drawn) (as salt: HCl), the melting point was 237 to 240 °C (dec.). On the same count and under the same terms, in the case of `Cc1ccc2c(c1F)CN(C)CC2c1ccccc1` (stereo not drawn) (as salt: hydrochloride) it was 215 to 216 °C.

For a further series, the system named is dopamine transporter protein over the norepinephrine transporter protein. The note with it: selectivity for dopamine transporter protein over norepinephrine transporter protein; cited from earlier work.
For the compound `COC(=O)C(c1ccccc1)C1CCCCN1` (stereo not drawn) [Methylphenidate], the “DAT/NET Ki ratio” value is 0.1.
